Assay results taken from patent US11590089B2, “Beta-2 selective adrenergic receptor agonists” (The Board of Trustees of the Leland Stanford Junior …, priority 2017, dated 2023).
Where a name gives a salt, the structure may show the parent alone. Read-outs that look alike come from different tables or passages of the source.

Assays:
β1-AR [1] = target: T1, β1-AR (Homo sapiens, UniProt P08588); assay: radioligand binding assay, β1-AR, [3H]CGP12177; settings: values given as a range are from screening experiments with a low number of repeats
Protocol: (§1) The binding affinities of exemplary compounds of interest at β1AR and β2AR were evaluated in a binding assay.
Target sequence in this assay (P08588 whole entry): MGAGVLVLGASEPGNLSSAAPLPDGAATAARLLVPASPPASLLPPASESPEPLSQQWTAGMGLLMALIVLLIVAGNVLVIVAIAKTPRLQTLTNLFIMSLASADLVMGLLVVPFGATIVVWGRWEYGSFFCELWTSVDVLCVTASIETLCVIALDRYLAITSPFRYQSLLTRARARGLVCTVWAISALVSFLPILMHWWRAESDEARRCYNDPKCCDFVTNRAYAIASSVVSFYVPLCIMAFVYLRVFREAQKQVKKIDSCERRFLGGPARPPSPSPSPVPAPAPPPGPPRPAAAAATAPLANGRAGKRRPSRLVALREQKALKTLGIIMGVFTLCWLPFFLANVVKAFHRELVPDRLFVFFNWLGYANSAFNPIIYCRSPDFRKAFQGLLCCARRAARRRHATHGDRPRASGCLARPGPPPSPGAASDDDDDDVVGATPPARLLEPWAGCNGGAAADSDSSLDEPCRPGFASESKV

β1-AR [2] = target: T1, β1-AR; assay: β-arrestin-2 recruitment assay at β1-AR; assay type: cell-based; settings: for β-arrestin-2 recruitment β1-AR Emax: relative to norepinephrine
Target sequence in this assay (P08588 whole entry): as above
Target sequence in this assay (P32121 whole entry partner): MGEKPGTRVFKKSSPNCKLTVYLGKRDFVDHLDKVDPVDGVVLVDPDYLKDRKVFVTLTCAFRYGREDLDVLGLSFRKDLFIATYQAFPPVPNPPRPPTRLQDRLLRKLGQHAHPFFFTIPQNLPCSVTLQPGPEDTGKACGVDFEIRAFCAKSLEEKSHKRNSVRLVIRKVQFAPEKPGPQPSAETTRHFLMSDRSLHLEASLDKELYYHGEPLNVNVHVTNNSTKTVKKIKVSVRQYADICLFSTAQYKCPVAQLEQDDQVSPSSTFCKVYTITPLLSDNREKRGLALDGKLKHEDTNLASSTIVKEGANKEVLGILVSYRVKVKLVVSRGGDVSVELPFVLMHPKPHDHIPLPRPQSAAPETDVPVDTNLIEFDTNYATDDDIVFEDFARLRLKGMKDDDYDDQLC

β2-AR [3] = target: T2, β2-AR (Homo sapiens, UniProt P07550); assay: radioligand binding assay, β2-AR, [3H]CGP12177; settings: for Ki: read-out: Ki β2-AR [3H]CGP12177
Protocol: as §1
Target sequence in this assay (P07550 whole entry): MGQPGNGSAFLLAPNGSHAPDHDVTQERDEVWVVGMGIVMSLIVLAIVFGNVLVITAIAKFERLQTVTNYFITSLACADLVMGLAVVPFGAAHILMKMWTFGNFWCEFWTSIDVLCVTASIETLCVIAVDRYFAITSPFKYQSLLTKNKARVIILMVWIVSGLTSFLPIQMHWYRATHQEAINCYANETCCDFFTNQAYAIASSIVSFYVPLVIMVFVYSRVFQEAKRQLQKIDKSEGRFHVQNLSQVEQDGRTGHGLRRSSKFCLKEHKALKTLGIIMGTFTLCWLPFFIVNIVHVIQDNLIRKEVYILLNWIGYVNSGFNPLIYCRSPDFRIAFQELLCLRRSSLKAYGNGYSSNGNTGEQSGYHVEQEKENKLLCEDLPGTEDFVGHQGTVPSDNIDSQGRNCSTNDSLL

•1A-AR = target: T3, •1A-AR (Homo sapiens, UniProt P35348); assay: radioligand binding assay, α1A-AR, [3H]prazosin
T3 sequence (P35348 1-466): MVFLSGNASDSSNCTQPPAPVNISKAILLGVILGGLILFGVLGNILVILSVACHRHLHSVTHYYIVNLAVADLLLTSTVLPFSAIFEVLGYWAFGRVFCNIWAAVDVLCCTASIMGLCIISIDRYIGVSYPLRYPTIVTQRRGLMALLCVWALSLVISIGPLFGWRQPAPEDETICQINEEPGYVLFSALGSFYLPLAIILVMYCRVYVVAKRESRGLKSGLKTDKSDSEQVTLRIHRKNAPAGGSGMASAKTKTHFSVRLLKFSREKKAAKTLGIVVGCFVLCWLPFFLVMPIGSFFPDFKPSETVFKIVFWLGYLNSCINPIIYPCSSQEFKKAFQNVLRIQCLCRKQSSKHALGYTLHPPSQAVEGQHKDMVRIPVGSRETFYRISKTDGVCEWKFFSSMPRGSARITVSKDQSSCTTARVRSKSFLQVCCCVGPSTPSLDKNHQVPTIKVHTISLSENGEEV

β2-AR [4] = target: T2, β2-AR; assay: β-arrestin-2 recruitment assay at β2-AR; assay type: cell-based; settings: for β-arrestin-2 recruitment β2-AR Emax: relative to norepinephrine; for EC50: ranges from screening experiments with a low number of repeats
Target sequence in this assay (P07550 whole entry): as the sequence (P07550 whole entry) above
Target sequence in this assay (P32121 whole entry partner): as the sequence (P32121 whole entry partner) above

α2A-AR = target: T4, α2A-AR (Homo sapiens, UniProt P08913); assay: radioligand binding assay, α2A-AR, [3H]RX821002; settings: radioligand [3H]RX821002; values given as a range are from screening experiments with a low number of repeats
T4 sequence (P08913 1-465): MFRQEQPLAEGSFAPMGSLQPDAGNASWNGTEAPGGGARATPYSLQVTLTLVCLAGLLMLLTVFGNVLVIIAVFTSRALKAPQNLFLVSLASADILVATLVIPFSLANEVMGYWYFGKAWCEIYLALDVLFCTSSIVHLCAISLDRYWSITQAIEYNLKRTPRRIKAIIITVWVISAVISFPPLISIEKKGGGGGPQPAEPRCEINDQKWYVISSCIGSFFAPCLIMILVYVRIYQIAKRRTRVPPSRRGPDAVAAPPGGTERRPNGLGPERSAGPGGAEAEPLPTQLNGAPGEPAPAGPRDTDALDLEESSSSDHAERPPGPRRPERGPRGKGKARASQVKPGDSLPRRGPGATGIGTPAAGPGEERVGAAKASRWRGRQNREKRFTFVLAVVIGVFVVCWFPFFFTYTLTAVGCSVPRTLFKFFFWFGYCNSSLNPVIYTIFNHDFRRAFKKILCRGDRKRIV

[5] = radioligand [3H]CGP12177, read-out: Ki β1-AR [3H]CGP12177
[6] = n.d. = could not be determined because of lack of activity, ranges from screening experiments with a low number of repeats, read-out: β-arrestin-2 recruitment β1-AR EC50
[7] = radioligand [3H]CGP12177, values given as a range are from screening experiments with a low number of repeats
[8] = β-arrestin-2 recruitment β2-AR EC50, n.d. = could not be determined because of lack of activity
[9] = radioligand [3H]prazosin, values given as a range are from screening experiments with a low number of repeats, read-out: Ki •1A-AR [3H]prazosin
[10] = n.d. = could not be determined because of lack of activity, read-out: β-arrestin-2 recruitment β2-AR EC50

SMILES	Ki (β1-AR [1]; [5])	EC50 (β1-AR [2]; [6])	β-arrestin-2 recruitment β1-AR Emax (β1-AR [2])	Ki (β2-AR [3]; [7])	β-arrestin-2 recruitment β2-AR Emax (β2-AR [4])	Ki (α2A-AR)	Ki (•1A-AR; [9])	EC50 (β2-AR [4]; [10])	Ki (•1A-AR)	EC50 (β2-AR [4]; [8])	Ki (β1-AR [1]; Ki β1-AR [3H]CGP12177, radioligand [3H]CGP12177)	EC50 (β1-AR [2])	selectivity for β2-AR over β1-AR (β2-AR [3])	Ki (β2-AR [3])
Oc1ccc2c(c1O)CC[C@@H](NCC1CCC1)[C@@H]2O [LM 110, (5R,6R)-6-((cyclobutylmethyl)amino)-5,6,7,8-tetrahydronaphthalene-1,2,5-triol]	51 µM	22 µM	25 % norepinephrine	0.17 µM	116 % norepinephrine	9.9 µM	–	–	4 µM	0.079 µM	–	–	–	–
CC(C)(C)CN[C@@H]1CCc2c(ccc(O)c2O)[C@H]1O [LM 117, (5R,6R)-6-(neopentylamino)-5,6,7,8-tetrahydronaphthalene-1,2,5-triol]	≥ 50 µM	10 to 20 µM	17 % norepinephrine	0.25 to 0.7 µM	116 % norepinephrine	15 to 30 µM	10 to 20 µM	0.05 to 0.12 µM	–	–	–	–	–	–
N[C@@H]1CCc2c(ccc(O)c2O)[C@H]1O [AS446, (5R,6R)-6-amino-5,6,7,8-tetrahydronaphthalene-1,2,5-triol×TFA]	16 µM	18 µM	56 % norepinephrine	0.68 µM	107 % norepinephrine	15 µM	–	–	18 µM	0.1 µM	–	–	–	–
CC(C)N[C@@H]1CCc2c(ccc(O)c2O)[C@H]1O [AS424A, (R,R)-1,5,6-trihydroxy-N-isopropyl-1,2,3,4-tetrahydronaphthalen-2-aminium TFA]	–	–	82 % norepinephrine	–	103 % norepinephrine	71 µM	–	–	–	0.024 µM	2.1 µM	1.2 µM	high selectivity	0.032 µM
CN[C@@H]1CCc2c(ccc(O)c2O)[C@H]1O [AS443, (5R,6R)-6-(methylamino)-5,6,7,8-tetrahydronaphthalene-1,2,5-triol]	38 µM	38 µM	60 % norepinephrine	0.14 µM	112 % norepinephrine	13 µM	17 µM	0.026 µM	–	–	–	–	–	–

Now from value to molecule, other results behind:

Ki (β1-AR [1]; [5])	EC50 (β1-AR [2]; [6])	β-arrestin-2 recruitment β1-AR Emax (β1-AR [2])	Ki (β2-AR [3]; [7])	β-arrestin-2 recruitment β2-AR Emax (β2-AR [4])	Ki (α2A-AR)	Ki (•1A-AR; [9])	EC50 (β2-AR [4]; [10])	SMILES	Ki (•1A-AR)	EC50 (β2-AR [4]; [8])	Ki (β1-AR [1]; Ki β1-AR [3H]CGP12177, radioligand [3H]CGP12177)	EC50 (β1-AR [2])	selectivity for β2-AR over β1-AR (β2-AR [3])	Ki (β2-AR [3])
40 to 80 µM	30 to 60 µM	35 % norepinephrine	0.6 to 1.5 µM	125 % norepinephrine	6 to 12 µM	10 to 20 µM	0.5 to 1 µM	COCC(COC)N[C@@H]1CCc2c(ccc(O)c2O)[C@H]1O [LM 114, (5R,6R)-6-((1,3-dimethoxypropan-2-yl)amino)-5,6,7,8-tetrahydronaphthalene-1,2,5-triol]	–	–	–	–	–	–
≥ 50 µM	> 100 µM	20 % norepinephrine	0.6 to 1.5 µM	115 % norepinephrine	25 to 45 µM	≥ 60 µM	0.2 to 0.4 µM	Oc1ccc2c(c1O)CC[C@@H](NC1COC1)[C@@H]2O [LM 113, (5R,6R)-6-(oxetan-3-ylamino)-5,6,7,8-tetrahydronaphthalene-1,2,5-triol]	–	–	–	–	–	–
7 µM	3 µM	81 % norepinephrine	0.28 µM	110 % norepinephrine	30 µM	> 90 µM	0.066 µM	Oc1ccc2c(c1O)CC[C@@H](NCCF)[C@@H]2O [LM 80, (5R,6R)-6-((2-fluoroethyl)amino)-5,6,7,8-tetrahydronaphthalene-1,2,5-triol]	–	–	–	–	–	–
10 µM	12 µM	18 % norepinephrine	0.63 µM	109 % norepinephrine	53 µM	> 100 µM	0.64 µM	Oc1ccc2c(c1O)CC[C@@H](NC(CF)CF)[C@@H]2O [LM 103, (5R,6R)-6-((1,3-difluoropropan-2-yl)amino)-5,6,7,8-tetrahydronaphthalene-1,2,5-triol]	–	–	–	–	–	–
7.5 µM	10 µM	90 % norepinephrine	0.097 µM	111 % norepinephrine	18 µM	–	0.025 µM	Oc1ccc2c(c1O)CC[C@@H](NCCCF)[C@@H]2O [LM 75, (5R,6R)-6-((3-fluoropropyl)amino)-5,6,7,8-tetrahydronaphthalene-1,2,5-triol]	23 µM	–	–	–	–	–
5 to 12 µM	6 to 14 µM	45 % norepinephrine	0.025 to 0.07 µM	124 % norepinephrine	8 to 15 µM	–	0.01 to 0.02 µM	Oc1ccc2c(c1O)CC[C@@H](NCC1CC(F)(F)C1)[C@@H]2O [LM 112, (5R,6R)-6-(((3,3-difluorocyclobutyl)methyl)amino)-5,6,7,8-tetrahydronaphthalene-1,2,5-triol]	5 to 8 µM	–	–	–	–	–
≥ 50 µM	25 to 70 µM	40 % norepinephrine	0.2 to 0.5 µM	119 % norepinephrine	8 to 15 µM	5 to 10 µM	0.12 to 0.25 µM	C[Si](C)(C)CN[C@@H]1CCc2c(ccc(O)c2O)[C@H]1O [LM 118, (5R,6R)-6-(((trimethylsilyl)methyl)amino)-5,6,7,8-tetrahydronaphthalene-1,2,5-triol]	–	–	–	–	–	–
